These results are taken from patent publication US20190174760A1, “N-ALKYLSULFONYL CONDENSED HETEROCYCLIC COMPOUND OR SALT THEREOF, INSECTICIDE COMPRISING THE COMPOUND, AND METHOD FOR USING THE INSECTICIDE” (Nihon Nohyaku Co., Ltd., priority 2016, published 2019).

Experiment [1] deals with Laodelphax striatellus. Briefly: Insecticidal test on Laodelphax striatellus (rice seedling dip). It is filed as in vivo. Conditions: 192 h, rice seedlings dipped 30 seconds, 3rd-instar larvae, 8 days after inoculation, read-out: insecticidal efficacy (corrected mortality rate) on Laodelphax striatellus. From the text: Insecticidal Test on Laodelphax striatellus
The compounds represented by the general formula (1) of the present invention or salts thereof were separately dispersed in water and diluted to 500 ppm. Rice plant seedlings (variety: Nihonbare) were dipped in the agrochemical dispersions for 30 seconds. After air-dried, each seedling was put into a separate glass test tube and inoculated with ten 3rd-instar larvae of Laodelphax striatellus, and then the glass test tubes were capped with cotton plugs. At 8 days after the inoculation, the numbers of surviving larvae and dead larvae were counted, the corrected mortality rate was calculated according to the formula shown below, and the insecticidal efficacy was evaluated according to the criteria shown below.
Corrected mortality rate (%)=100×(Survival rate in a non-treatment plot−Survival rate in a treatment plot)/Survival rate in a non-treatment plot [Math. 2]
A: the corrected mortality rate is 100%. B: the corrected mortality rate is 90 to 99%. C: the corrected mortality rate is 80 to 89%. D: the corrected mortality rate is 50 to 79%.

In experiment [2] the test system is Plutella xylostella. Briefly: Insecticidal test on Plutella xylostella (dip of Chinese cabbage seedlings with laid eggs). Conditions: 144 h, seedlings with laid eggs dipped about 30 seconds, 25° C., 6 days after dip treatment, read-out: insecticidal efficacy (corrected mortality rate) on Plutella xylostella. The experiment is classed as in vivo. The source says: Insecticidal Test on Plutella xylostella
Adults of Plutella xylostella were released onto Chinese cabbage seedlings and allowed to lay eggs thereon. At 2 days after the release of the adults, the Chinese cabbage seedlings with laid eggs were dipped for about 30 seconds in agrochemical formulations diluted to 500 ppm, each of which contained a different compound represented by the general formula (1) of the present invention as an active ingredient. After air-dried, the seedlings were kept in a thermostatic chamber at 25° C. At 6 days after the dip treatment, the number of hatched larvae per plot was counted, the mortality rate was calculated according to the formula shown below, and the insecticidal efficacy was evaluated according to the criteria of Test Example 2. This test was conducted in triplicate using 10 adults of Plutella xylostella per plot.
Corrected mortality rate (%)=100×(Number of hatched larvae in a non-treatment plot−Number of hatched larvae in a treatment plot)/Number of hatched larvae in a non-treatment plot [Math. 3]

For `CCS(=O)(=O)n1c(-c2nc3cc(C(F)(F)F)cnc3n2C)cc2cc(C(F)(F)F)ccc21` [Compound 2-11, 2-(1-ethylsulfonyl-5-trifluoromethylindol-2-yl)-3-methyl-6-trifluoromethyl-3H-imidazo[4,5-b]pyridine], the mortality at 500 ppm in experiment [1] and in experiment [2] was 100% throughout.

Consider `CCS(=O)(=O)n1c(-c2nc3cc(C(F)(F)C(F)(F)F)nnc3n2C)cc2ccc(F)cc21` [Compound 1-65, 2-(1-ethylsulfonyl-6-fluoroindol-2-yl)-3-methyl-6-pentafluoroethyl-3H-imidazo[4,5-c]pyridazine], for which the mortality at 500 ppm in experiment [1] and in experiment [2] was 100% each time.

For the compound `CCS(=O)(=O)n1c(-c2nc3cc(C(F)(F)C(F)(F)F)nnc3n2C)cc2ccccc21` [Compound 1-33, 2-(1-ethylsulfonylindol-2-yl)-3-methyl-6-pentafluoroethyl-3H-imidazo[4,5-c]pyridazine], the mortality at 500 ppm in experiment [1] and in experiment [2] was 100% throughout.

Consider `CCS(=O)(=O)n1c(-c2nc3cc(SC(F)(F)F)ccc3o2)cc2ccccc21` [Compound 3-1, 2-(1-ethylsulfonylindol-2-yl)-5-trifluoromethylthiobenzo[d]oxazole], for which the mortality (usually the percentage killed) at 500 ppm in experiment [2] is 100%.
